Experimental data from publication PMC8920630 (Evidence-based Complementary and Alternative Medicine : eCAM, 2022).
Where two headings read alike, the source gives them in different places.

Assays:
[1] = PAMPA-BBB, prediction of CNS permeability; conditions: for Prediction of CNS penetration: class from experimental Pe, limits of Di et al., 2003
[2] = set-up: method as in PMID 27992940; conditions: cited from earlier work
[3] = test system: primary porcine brain endothelial cells (PBECs); conditions: cited from earlier work
[4] = in vitro; conditions: PAMPA

Compound	Prediction of CNS penetration [1]	PAMPA-BBB (Pe) Experimental permeability ([1]; PBS: DMSO (95 : 5), 18 h, mean ± SEM)	Apparent oral bioavailability [2]	BBB permeability in in vitro BBB model ([3]; primary porcine brain endothelial cells (PBECs))	Papp [4]	Papp at 18 h [4]	BBB permeability in in vitro BBB model [3]
CCn1cc(C(=O)O)c(=O)c2cc(F)c(N3CCNCC3)nc21 [Enoxacin]	CNS− (CNS−, low BBB permeation predicted; Pe, 10–6 cm s^−1 < 2.0)	–	–	–	–	–	–
Madecassoside	CNS− (CNS−, low BBB permeation predicted; Pe, 10–6 cm s^−1 < 2.0)	0.26 ± 0.7 10^−6 cm s^−1	less than 1%	highly BBB permeable	–	–	–
C[C@H]1[C@H](C)CC[C@]2(C(=O)O)CC[C@]3(C)C(=CC[C@@H]4[C@@]5(C)C[C@@H](O)[C@H](O)[C@@](C)(CO)[C@@H]5[C@H](O)C[C@]43C)[C@H]12 [Madecassic acid]	CNS− (CNS−, low BBB permeation predicted; Pe, 10–6 cm s^−1 < 2.0)	–	–	–	0.27 ± 0.3 ×10⁻⁶ cm/s	–	–
C[C@H]1[C@H](C)CC[C@]2(C(=O)O)CC[C@]3(C)C(=CC[C@@H]4[C@@]5(C)C[C@@H](O)[C@H](O)[C@@](C)(CO)[C@@H]5CC[C@]43C)[C@H]12 [Asiatic acid]	CNS− (CNS−, low BBB permeation predicted; Pe, 10–6 cm s^−1 < 2.0)	–	–	–	–	0.3 ± 0.3 ×10⁻⁶ cm/s	highly BBB permeable
